Results on 11 compounds are retold here after ChEMBL document CHEMBL1201862, “PubChem BioAssay data set” (2004).

A word on the GI50: it is the concentration at which growth is held to half of that of the control.

Molecules are shown by their SMILES.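 Each compound was tested at five concentrations against cells in 96-well plates for 48 hours. The concentration for 50% growth inhibition is given as GI50.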 The source made the active and inactive calls. Cut-off read from the data, not from the text of the source: active = GI50 up to about 1.1 µM and inactive = higher.

Among the test systems are RXF 393; CCRF-CEM; OVCAR-5; CAKI-1; T47D; U-251; SNB-75; Malme-3M; UACC-62; IGROV-1; OVCAR-4; SF-268; ACHN; OVCAR-8; 786-0; NCI/ADR-RES; PC-3; HCT-116; EKVX; A498.
Assay in all cases: DTP human tumour cell line panel, 48 h

Turning to `CC(=O)Nc1ccccc1SCCSSCCSc1ccccc1NC(C)=O`, the GI50 is 34.2 µM (inactive) in the test with RXF 393; 23.6 µM (inactive) in the test with CCRF-CEM; 31.5 µM (inactive) in the test with OVCAR-5; 20.8 µM (inactive) in the test on CAKI-1; 25.6 µM (inactive) in the test on T47D; 26.5 µM (inactive) with U-251. The GI50 in the test on SNB-75 was 24.3 µM (inactive); in the test on Malme-3M it was 34.7 µM (inactive); in the test on UACC-62 it was 32 µM (inactive); with IGROV-1 it was 20.3 µM (inactive); in the test with OVCAR-4, 22.6 µM (inactive); in the test with SF-268, 38.2 µM (inactive). In addition, the GI50 in the test with ACHN is 20.6 µM (inactive); with OVCAR-8 it was 38.9 µM (inactive); with 786-0 it was 28.4 µM (inactive); in the test with NCI/ADR-RES, 31.8 µM (inactive); in the test with PC-3 it was 23.1 µM (inactive); in the test on HCT-116, 36.2 µM (inactive). Moreover, in the test on EKVX, the GI50 is 43.3 µM (inactive).

For the compound `CC1(C)C2CCC1(C)C(OC(=O)/C=C/C(=O)OC1CC3CCC1(C)C3(C)C)C2` (stereo not drawn), the GI50 in the test on RXF 393 is 58.9 µM (inactive); in the test with CCRF-CEM, 11.4 µM (inactive); in the test with OVCAR-5 it was > 100 µM (inactive); in the test on CAKI-1, > 100 µM (inactive); with T47D, > 100 µM (inactive); in the test on U-251 it was 46.1 µM (inactive). The GI50 is 0.902 µM (active) in the test with SNB-75; 31.2 µM (inactive) in the test with UACC-62; > 100 µM (inactive) in the test on IGROV-1; > 100 µM (inactive) in the test on OVCAR-4; > 100 µM (inactive) with SF-268; > 100 µM (inactive) with ACHN. Besides, the GI50 is > 100 µM (inactive) in the test on A498; > 100 µM (inactive) in the test with OVCAR-8; 72.9 µM (inactive) in the test on 786-0; > 100 µM (inactive) with NCI/ADR-RES; > 100 µM (inactive) in the test with PC-3; 56.9 µM (inactive) in the test on HCT-116. Moreover, the GI50 in the test on EKVX is > 100 µM (inactive).

Consider `COC(=O)/C(C)=N/N=C(\S)SC`, for which the GI50 with RXF 393 was 16.7 µM (inactive); with CCRF-CEM, 0.0428 µM (active); with OVCAR-5 it was 80.2 µM (inactive); in the test with CAKI-1 it was 35.2 µM (inactive); in the test with T47D it was 18.1 µM (inactive); in the test with U-251 it was 38.5 µM (inactive). Also, the GI50 with IGROV-1 is 47.5 µM (inactive); in the test with OVCAR-4 it was 46.3 µM (inactive); with SF-268, 21.8 µM (inactive); in the test on ACHN it was 34.1 µM (inactive); with A498, > 100 µM (inactive); in the test on OVCAR-8, 36.4 µM (inactive). Also, the GI50 with 786-0 was 35.9 µM (inactive); in the test with NCI/ADR-RES, 30 µM (inactive); in the test with PC-3, 36.5 µM (inactive); in the test on HCT-116, 31.6 µM (inactive); in the test on EKVX, > 100 µM (inactive).

For the compound `CC(C)(C)C(=O)CC(=O)C(F)(F)C(F)(F)C(F)(F)F`, the GI50 with RXF 393 is 17.3 µM (inactive); in the test on CCRF-CEM, 16.3 µM (inactive); in the test with OVCAR-5 it was 35.4 µM (inactive); with CAKI-1, 14.7 µM (inactive); with T47D, 16 µM (inactive); with U-251, 18.4 µM (inactive). The GI50 in the test with SNB-75 was 16.6 µM (inactive); with Malme-3M, 22.1 µM (inactive); with UACC-62, 15.3 µM (inactive); with IGROV-1 it was 11.9 µM (inactive); with OVCAR-4, 13.2 µM (inactive); in the test with SF-268, 17 µM (inactive). Further, the GI50 in the test with ACHN was 15.3 µM (inactive); in the test on OVCAR-8, 20.7 µM (inactive); with 786-0, 17 µM (inactive); in the test with NCI/ADR-RES it was 18.6 µM (inactive); in the test with PC-3 it was 13.6 µM (inactive); with HCT-116 it was 18.3 µM (inactive). Further, in the test on EKVX, the GI50 was 15.2 µM (inactive).

As for `COC1CC(OC2OC(CO)C(O)C(O)C2O)/C(=C\C#N)C(O)C1OC` (stereo not drawn), the GI50 with RXF 393, with CCRF-CEM, in the test on OVCAR-5, with CAKI-1, in the test on T47D and in the test on U-251 was > 100 µM (inactive) throughout. In addition, the GI50 in the test with Malme-3M, with UACC-62, with IGROV-1, with OVCAR-4, in the test with SF-268 and with ACHN was > 100 µM (inactive) in each case. In addition, the GI50 in the test on A498, in the test on OVCAR-8, in the test on 786-0, in the test on NCI/ADR-RES, in the test with PC-3 and in the test with HCT-116 was > 100 µM (inactive) each time. In addition, the GI50 in the test on EKVX is > 100 µM (inactive).

As to `COCOc1cc(OC)ccc1C=O`, the GI50 is 14.7 µM (inactive) in the test on RXF 393; 20.7 µM (inactive) in the test on CCRF-CEM; > 100 µM (inactive) in the test on OVCAR-5; 86.9 µM (inactive) with CAKI-1; 44.7 µM (inactive) with T47D; 30 µM (inactive) in the test with U-251. Also, the GI50 in the test on SNB-75 is 27.5 µM (inactive); in the test with Malme-3M, 11.6 µM (inactive); in the test with UACC-62, 54.2 µM (inactive); in the test on IGROV-1 it was 33.1 µM (inactive); in the test with OVCAR-4 it was 78 µM (inactive); in the test on SF-268 it was 64.9 µM (inactive). Besides, the GI50 in the test with ACHN was 95.7 µM (inactive); in the test on OVCAR-8, 41.3 µM (inactive); with 786-0, 36.6 µM (inactive); in the test on NCI/ADR-RES it was 17.3 µM (inactive); in the test on PC-3 it was 21.8 µM (inactive); in the test with HCT-116 it was 33.7 µM (inactive). Besides, the GI50 with EKVX is 52.1 µM (inactive).

As to `COc1ccc(/C=C2\CCC(CNc3ccc(Br)cc3)C2=O)cc1` (stereo not drawn), the GI50 in the test on RXF 393 was > 100 µM (inactive); in the test on CCRF-CEM, 31.8 µM (inactive); in the test on OVCAR-5 it was > 100 µM (inactive); in the test on CAKI-1 it was > 100 µM (inactive); in the test on T47D, 84.7 µM (inactive); with U-251 it was > 100 µM (inactive). Further, the GI50 was > 100 µM (inactive) in the test on Malme-3M; 34.8 µM (inactive) in the test with UACC-62; > 100 µM (inactive) with IGROV-1; > 100 µM (inactive) in the test with OVCAR-4; > 100 µM (inactive) in the test with SF-268; 15.3 µM (inactive) in the test with ACHN. In addition, the GI50 in the test with A498, in the test with OVCAR-8, with 786-0, in the test with NCI/ADR-RES, in the test with PC-3 and in the test with EKVX was > 100 µM (inactive) each time.

As to `CC1C2CCC3C(O)C2(CC(O)C2(O)C1CC(O)C2(C)C)CC3(C)O` (stereo not drawn), the GI50 in the test with CCRF-CEM, in the test on OVCAR-5, in the test with CAKI-1, in the test with T47D, in the test with U-251 and in the test on Malme-3M was > 100 µM (inactive) throughout. Moreover, the GI50 in the test with UACC-62, with IGROV-1, in the test with OVCAR-4, in the test with SF-268, in the test on ACHN and with A498 was > 100 µM (inactive) each time. The GI50 in the test on OVCAR-8, in the test with 786-0, with NCI/ADR-RES, in the test with PC-3, in the test on HCT-116 and with EKVX was > 100 µM (inactive) throughout.

For the compound `CCCCOc1ccc(S(=O)(=O)N/C(N)=N/c2ccc(Cl)cc2)cc1`, the GI50 in the test with RXF 393 is 16.1 µM (inactive); in the test with OVCAR-5, 17.7 µM (inactive); with T47D it was 10.7 µM (inactive); in the test with U-251, 14.8 µM (inactive); with SNB-75, 17.9 µM (inactive); with Malme-3M, 14.6 µM (inactive). Moreover, the GI50 with UACC-62 is 14.1 µM (inactive); with IGROV-1 it was 14.7 µM (inactive); in the test on OVCAR-4, 10.2 µM (inactive); in the test with SF-268 it was 14.3 µM (inactive); in the test on ACHN, 14.6 µM (inactive); in the test on A498, 12.1 µM (inactive). Moreover, the GI50 is 16.1 µM (inactive) with OVCAR-8; 14.7 µM (inactive) in the test on 786-0; 16 µM (inactive) in the test on NCI/ADR-RES; 17.3 µM (inactive) with PC-3; 15.2 µM (inactive) with HCT-116; 10.3 µM (inactive) with EKVX.

In the case of `COc1ccc2c(c1OC)CN1CCc3cc4c(cc3C1C2)OCO4` (stereo not drawn) [TETRAHYDROBERBERINE], the GI50 with OVCAR-5, in the test with CAKI-1, with T47D, in the test with U-251, with SNB-75 and in the test on Malme-3M was > 100 µM (inactive) in each case. In addition, the GI50 in the test with UACC-62, in the test on IGROV-1, in the test on OVCAR-4, in the test with SF-268, in the test with ACHN and in the test with A498 was > 100 µM (inactive) in each case. The GI50 in the test on OVCAR-8, with 786-0, in the test on NCI/ADR-RES, in the test with PC-3, with HCT-116 and in the test on EKVX was > 100 µM (inactive) each time.

Regarding `Cc1nn(C(=O)c2ccc(Cl)cc2)c2c1C(c1ccccc1)SC(=N)N2` (stereo not drawn), the GI50 with RXF 393, in the test with CCRF-CEM, in the test on OVCAR-5, in the test on CAKI-1, with T47D and in the test on U-251 was > 10 µM (inactive) in each case. The GI50 in the test with SNB-75, in the test with Malme-3M, in the test on UACC-62, in the test with IGROV-1, in the test with OVCAR-4 and in the test on SF-268 was > 10 µM (inactive) throughout. Further, the GI50 in the test on ACHN, in the test with OVCAR-8, in the test with 786-0, in the test on NCI/ADR-RES, with PC-3 and in the test on HCT-116 was > 10 µM (inactive) each time. In addition, the GI50 with EKVX is > 10 µM (inactive).
